Consider two compounds from article PMC9668969 (Nature Communications, 2022).

pEC50: −log10 of the molar value. Where “and” joins values, the source holds several entries; their conditions need not be identical. Identical values can stand only once.

Holding throughout (type): biochemical, Erwinia chrysanthemi
The target in one assay is T1, ELIC Q264L (Dickeya chrysanthemi, UniProt P0C7B7, Q263L).
T1 construct: host or cells: OverExpress C43 (DE3) E. coli
The following applies: 25 mol% outer leaflet POPG, 10 mM propylamine. On the procedure:
(§1) The mutations were tested as for WT by examining the effect of 25 mol% outer leaflet POPG in paired (no exchange versus exchange) samples (Supplementary Fig. 15).
(§2) The fluorescence sequential-mixing stopped-flow liposomal flux measurements were carried using an SX20 stopped-flow spectrofluorometer (Applied Photophysics) and Pro-Data SX software[13],[30]. 7.5 mg of the respective lipid mixture (POPC, 1:1 POPC: POPE, 1:1 POPC:POPG, 3:1 POPC:POPE, 3:1 POPC:POPG, 2:1:1 POPC:POPE:POPG) was dried in a glass vial to a thin film under a constant stream of N2. The lipids were then further dried under vacuum in a desiccator overnight. The following day the lipids were hydrated in 500 µl of reconstitution buffer (100 mM NaNO3, 10 mM HEPES, pH 7) (Buffer R), 250 µl of 75 mM 8-Aminonaphthalene-1,3,6-Trisulfonic Acid (ANTS, ThermoFisher Scientific) in buffer R, and doped with ~18 mg of CHAPS (Anatrace). The mixture was vortexed and then sonicated with heat until completely solubilized. Following the sonication, the solution was brought to RT then 3.5 µl of 6.7 mg/ml ELIC in Buffer A with 0.02% DDM was added (3 µg per mg of lipid). This combined solution was incubated at RT for 30 min, followed by the addition of 1 ml of 1:1 v/v SM-2 BioBeads in Buffer R and an additional 250 µl of 75 mM ANTS in Buffer R. This mixture was incubated at RT for 2.5 hr with gentle mixing. The liposome suspension was then extruded with an Avanti mini-extruder and 0.1 µm membrane (30×). The extruded liposomes were stored at 13 °C overnight with gentle rotation. The next day, the liposomes were diluted to 2.5 mL using assay buffer (140 mM NaNO3, 10 mM HEPES, pH 7) (Stopped-flow Buffer A), loaded into a PD-10 desalting column (Cytiva), eluted with 3 mL of Stopped-flow Buffer A and subsequently diluted 5-fold with Stopped-flow Buffer A.
(§3) Using propylamine as the agonist, the assay and analysis was carried out as previously described[13],[30].

The target in a further assay is T2, ELIC W206F (Dickeya chrysanthemi, UniProt P0C7B7, W205F).
T2 construct: host or cells: OverExpress C43 (DE3) E. coli
T2 sequence (P0C7B7 whole entry W205F): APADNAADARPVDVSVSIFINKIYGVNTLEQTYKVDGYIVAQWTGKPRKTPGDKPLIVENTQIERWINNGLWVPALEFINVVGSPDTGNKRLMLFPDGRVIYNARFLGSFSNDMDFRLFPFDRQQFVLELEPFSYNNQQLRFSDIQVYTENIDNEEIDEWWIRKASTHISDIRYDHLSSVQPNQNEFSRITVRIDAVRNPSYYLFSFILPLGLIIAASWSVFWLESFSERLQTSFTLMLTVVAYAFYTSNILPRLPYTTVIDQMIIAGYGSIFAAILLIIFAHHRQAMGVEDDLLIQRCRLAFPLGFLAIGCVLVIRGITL
The following applies: 25 mol% outer leaflet POPG, 10 mM propylamine. How it is done: as §1, §2, §3

Another assay deals with T3, ELIC S202A (Dickeya chrysanthemi, UniProt P0C7B7, S201A).
T3 construct: host or cells: OverExpress C43 (DE3) E. coli
T3 sequence (P0C7B7 whole entry S201A): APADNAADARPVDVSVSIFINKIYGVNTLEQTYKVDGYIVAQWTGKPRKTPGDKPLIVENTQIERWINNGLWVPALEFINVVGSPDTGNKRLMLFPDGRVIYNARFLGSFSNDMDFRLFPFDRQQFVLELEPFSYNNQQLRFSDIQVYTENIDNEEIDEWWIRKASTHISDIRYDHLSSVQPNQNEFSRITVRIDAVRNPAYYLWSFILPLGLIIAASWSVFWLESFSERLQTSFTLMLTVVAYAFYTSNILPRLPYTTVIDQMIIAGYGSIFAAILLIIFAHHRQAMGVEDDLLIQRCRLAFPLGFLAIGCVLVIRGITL
The following applies: 25 mol% outer leaflet POPG, 10 mM propylamine. On the procedure:
as §1, §2, §3

The target in another assay is T4, ELIC T259A (Dickeya chrysanthemi, UniProt P0C7B7, T258A/T259A).
T4 construct: host or cells: OverExpress C43 (DE3) E. coli
T4 sequence (P0C7B7 whole entry T258A/T259A): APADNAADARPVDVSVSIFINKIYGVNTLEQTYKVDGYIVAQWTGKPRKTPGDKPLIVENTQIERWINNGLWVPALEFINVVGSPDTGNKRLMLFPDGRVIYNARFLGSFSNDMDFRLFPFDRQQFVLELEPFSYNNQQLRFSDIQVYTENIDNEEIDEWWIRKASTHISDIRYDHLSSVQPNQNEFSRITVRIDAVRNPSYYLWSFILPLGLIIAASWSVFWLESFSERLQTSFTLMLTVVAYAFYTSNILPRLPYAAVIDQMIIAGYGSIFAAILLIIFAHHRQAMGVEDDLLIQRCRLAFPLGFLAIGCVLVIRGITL
Particulars: 25 mol% outer leaflet POPG, 10 mM propylamine. On the procedure: as §1, §2, §3

For another assay, the target named is T5, ELIC R318A (Dickeya chrysanthemi, UniProt P0C7B7, R317A).
T5 construct: host or cells: OverExpress C43 (DE3) E. coli
T5 sequence (P0C7B7 whole entry R317A): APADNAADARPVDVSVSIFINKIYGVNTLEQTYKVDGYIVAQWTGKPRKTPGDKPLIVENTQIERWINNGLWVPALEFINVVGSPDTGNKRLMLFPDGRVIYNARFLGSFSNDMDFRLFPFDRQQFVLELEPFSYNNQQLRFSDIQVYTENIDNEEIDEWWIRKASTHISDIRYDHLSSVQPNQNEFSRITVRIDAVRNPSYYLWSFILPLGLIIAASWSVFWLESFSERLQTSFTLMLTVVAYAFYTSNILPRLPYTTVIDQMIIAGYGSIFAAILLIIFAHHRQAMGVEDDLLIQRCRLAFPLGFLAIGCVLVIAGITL
Particulars: 25 mol% outer leaflet POPG, 10 mM propylamine. On the procedure:
as §1, §2, §3

The test system of the next assay is WT ELIC. Briefly: Giant liposome excised patch-clamp recordings (2:1:1 POPC:POPE:POPG). How it is done:
(§4) Giant liposome formation and excised patch-clamp recordings of ELIC were performed as previously described[12],[13]. 0.5 mg of WT ELIC, ELIC3 or ELIC5 were reconstituted in 5 mg of 2:1:1 POPC:POPE:POPG liposomes, using DDM destabilization and biobeads. 10 mM MOPS pH 7 and 150 mM NaCl (MOPS buffer) was used throughout. Proteoliposomes were pelleted and resuspended in ~80 µl, and frozen in 10 µl aliquots. Giant liposomes were formed by dehydrating 10 µl of proteoliposomes on a glass coverslip in a vacuum desiccator for ~20 min followed by rehydration with 100 µl of MOPS buffer overnight at 4 °C and 2 hr at RT the following day. The giant liposomes were resuspended by pipetting and applied to a recording chamber. The liposomes were allowed to settle for 15 min, after which free liposomes and debris were removed by exchanging the bath solution. Bath and pipette solutions contained MOPS buffer and 0.5 mM BaCl2 (Sigma). […] Rapid application or washout of agonist were performed using a three-barreled flowpipe mounted to and controlled by a SF-77B fast perfusion system (Warner Instrument Corporation). […] Deactivation time courses were fit with a single exponential while the time course of desensitization was fit with a double exponential. Weighted time constants were calculated using Eq. 1:1 Weighted Tau=A1×τ1+(A2×τ2)/A1+A2 where A1 and A2 are the amplitudes of the first and second exponential components. The data were collected and analyzed using pClamp10.4 software.
(Patch clamp records ionic current or voltage across a cell membrane.)

Assay [1] has as its target T6, ELIC5 (P254G/C300S/V261Y/G319F/I320F) (Dickeya chrysanthemi, UniProt P0C7B7, C299S/G318F/I319F/P253G/V260Y).
T6 construct: host or cells: OverExpress C43 (DE3) E. coli
Described as above. How it is done: as §4

T6 sequence (P0C7B7 whole entry P253G/V260Y/C299S/G318F/I319F): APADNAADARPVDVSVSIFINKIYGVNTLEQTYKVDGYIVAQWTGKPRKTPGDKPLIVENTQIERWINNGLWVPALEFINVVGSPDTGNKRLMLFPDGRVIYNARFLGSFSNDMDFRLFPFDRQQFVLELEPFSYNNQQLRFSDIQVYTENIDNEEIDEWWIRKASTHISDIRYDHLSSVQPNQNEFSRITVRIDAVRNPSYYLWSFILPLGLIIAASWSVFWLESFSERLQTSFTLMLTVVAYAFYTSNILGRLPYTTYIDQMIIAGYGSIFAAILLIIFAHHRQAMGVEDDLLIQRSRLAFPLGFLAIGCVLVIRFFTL
T1 sequence (P0C7B7 whole entry Q263L): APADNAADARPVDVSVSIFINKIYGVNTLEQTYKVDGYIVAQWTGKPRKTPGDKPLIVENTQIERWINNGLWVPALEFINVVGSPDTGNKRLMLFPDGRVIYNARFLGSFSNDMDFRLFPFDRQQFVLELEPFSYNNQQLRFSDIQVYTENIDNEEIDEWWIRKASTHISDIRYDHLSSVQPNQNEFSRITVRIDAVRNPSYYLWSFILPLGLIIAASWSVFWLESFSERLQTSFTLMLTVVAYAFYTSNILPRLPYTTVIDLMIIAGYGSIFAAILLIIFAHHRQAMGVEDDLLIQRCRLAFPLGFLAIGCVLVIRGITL

As to `CCCCCCCC/C=C\CCCCCCCC(=O)OC(COC(=O)CCCCCCCCCCCCCCC)COP(=O)(O)OCC(O)CO` (centres unmarked) [POPG, 1-palmitoyl-2-oleoyl-phosphatidylglycerol], the “POPG modulation (peak response and desensitization)” value was “POPG modulation is preserved” on ELIC Q264L; “POPG only decreases desensitization” at ELIC W206F; “both effects of POPG (increased peak response and decreased desensitization) are abolished” on ELIC S202A; “POPG only decreases desensitization” at ELIC T259A; “POPG only decreases desensitization” on ELIC R318A. Besides, the “increase in the measurable peak response” value at ELIC Q264L came out at 2 ×.

Take `NCCS` [cysteamine]: the “Peak response (normalized)” value came out at 0.003114 in the assay with WT ELIC (0.3 mM cysteamine); 0.01807 in the assay on WT ELIC (1 mM cysteamine); 0.2085 in the assay on WT ELIC (3 mM cysteamine); 0.7416 in the assay on WT ELIC (10 mM cysteamine); 1 in the assay on WT ELIC (30 mM cysteamine). Also, the “Relative current at 60s, Average” value with WT ELIC (10 mM Cys) came out at 0.05101; with WT ELIC (30 mM Cys) it was 0.03561. For the same compound, the “Time constant of deactivation, Deactivation Tau” value came to 0.1636 s in the assay with WT ELIC (10 mM Cys), 0.4008 s with WT ELIC (30 mM Cys) and 195.719 s in assay [1] (10 mM Cys). For the same compound, the “Time constant of desensitizaton, Weighted Tau” value in the assay on WT ELIC (10 mM Cys) is given as 4.764 s; in the assay with WT ELIC (30 mM Cys), 2.506 s. For the same compound, the pEC50 (commonly the EC50 on a negative log10 scale, so that one unit is a factor of ten) with WT ELIC (2:1:1 giant liposomes, 0.5 mM BaCl2, Hill n set to 2, read-out: EC50 of peak current dose response) is 2.28 and 2.30 to 2.40. For the same compound, the “Relative current at 60s” value in assay [1] (10 mM Cys) is listed as “No evidence of desensitization”. For the same compound, in assay [1] (10 mM Cys), the “Time constant of desensitizaton” value is “No evidence of desensitization”. Moreover, in assay [1] (after removal of 10 mM cysteamine), the “deactivation rate, fold slower than WT” value was ~ 1000 ×. Also, the desensitization entry in assay [1] (in the presence of 10 mM cysteamine) was “no evidence of desensitization”.
